Here are results for 14 compounds from ChEMBL document CHEMBL2203114, “The Discovery of MK-4256, a Potent SSTR3 Antagonist as a Potential Treatment of Type 2 Diabetes” (ACS Med Chem Lett, 2012).

In data set [1] the target is Somatostatin receptor type 3 (Mus musculus) (UniProt P30935). Kind of data set: Inhibition of mouse SSTR3 transfected in CHO cells assessed as inhibition of SRIF-induced reduction of cAMP accumulation after 45 mins relative to control. The class given is functional, cell-based. The arrangement: concentration or dose not given beside the values. Background: cAMP levels reflect the balance of adenylyl cyclase and phosphodiesterase activity.

For data set [2], the target named is T1, Somatostatin receptor type 3 (Homo sapiens, UniProt P32745).
Description: Inhibition of human SSTR3 transfected in CHO cells assessed as inhibition of SRIF-induced reduction of cAMP accumulation after 45 mins
Data set [3] has as its target T1, Somatostatin receptor type 3. Put plainly: biochemical.
Description: Displacement of [125I]SS-28 from human SSTR3 transfected in CHO cells after 60 to 90 mins
Data set [4] concerns the target Voltage-gated inwardly rectifying potassium channel KCNH2 (Homo sapiens, UniProt Q12809).
Description: Displacement of radiolabeled MK-499 from human ERG channel
Data set [5] deals with T2, Somatostatin receptor type 3 (Mus musculus, UniProt P30935).
Data set [6] is described as follows: Volume of distribution at steady state in mouse at 10 mg/kg, po and 4 mg/kg, iv. Conditions: in vivo.
Data set [7] has as its system Mus musculus. Put plainly: Antidiabetic activity in C57BL/6 mouse assessed as reduction of glucose excursion at 10 mg/kg, po by ipGTT. The class given is functional. The arrangement: scale not given: the % may be the effect or the level left.
Data set [8] is described as follows: Half life in rat at 1 mg/kg, iv. The conditions noted are these: in vivo.
A short description of data set [9]: Half life in mouse at 4 mg/kg, iv. Conditions: in vivo.
Data set [10] in a line: in vivo. Conditions: rat, plasma, po, 2 mg/kg.
Data set [11] is described as follows: in vivo. Conditions: rat, po, 2 mg/kg.
A short description of data set [12]: in vivo. Conditions: mouse, plasma, po, 10 mg/kg.
Data set [13] can be described thus: Plasma concentration in C57BL/6 mouse at 10 mg/kg, po measured after 2.5 hrs. In kind it is ADME, organism-based. Also noted: dose 10 mg/kg, route oral.
Data set [14] is described as follows: in vivo. Conditions: mouse, po, 10 mg/kg.
The nature of data set [15]: Volume of distribution at steady state in rat at 2 mg/kg, po and 1 mg/kg, iv. Conditions: in vivo.
The nature of data set [16]: Clearance in rat at 1 mg/kg, iv. Conditions: in vivo.
The nature of data set [17]: Clearance in mouse at 4 mg/kg, iv. Conditions: in vivo.
The target of data set [18] is T2, Somatostatin receptor type 3. Put plainly: biochemical.
Description: Displacement of [125I]SS-28 from mouse SSTR3 transfected in CHO cells after 60 to 90 mins
Data set [19] deals with Mus musculus. Put plainly: Antidiabetic activity in C57BL/6 mouse assessed as reduction of glucose excursion at 1 mg/kg, po by OGTT. The class given is functional. The arrangement: scale not given: the % may be the effect or the level left.
Data set [20] relates to Mus musculus. Kind of data set: Antidiabetic activity in C57BL/6N mouse assessed as reduction of blood glucose level at 0.01 to 1 mg/kg, po measured over 5 hrs. The class given is functional, organism-based.
Data set [21] concerns Mus musculus. Kind of data set: Antidiabetic activity in C57BL/6N mouse assessed as reduction of blood glucose excursion at 1 mg/kg by OGTT ( Rvb = 91%). The class given is functional.
For data set [22], the system named is Mus musculus. Put plainly: Antidiabetic activity in SSTR3-knockout mouse assessed as reduction of blood glucose excursion at 1 mg/kg by OGTT. In kind it is functional. Also noted: scale not given: the % may be the effect or the level left.
Data set [23] deals with Somatostatin receptor type 5 (Homo sapiens) (UniProt P35346). Put plainly: Inhibition of human SSTR5 transfected in CHO cells assessed as inhibition of SRIF-induced reduction of cAMP accumulation at 5 uM after 45 mins. In kind it is functional, cell-based.
Data set [24] concerns the target Somatostatin receptor type 4 (Homo sapiens) (UniProt P31391). The conditions noted are these: CHO, 20 uM.
The subject of data set [25] is Mus musculus. Put plainly: Antidiabetic activity in po dosed C57BL/6 mouse assessed as reduction of glucose excursion by OGTT. The class given is functional, organism-based.
A short description of data set [26]: Volume of distribution at steady state in dog at 1 mg/kg, iv and 2 mg/kg, po. The conditions noted are these: in vivo.
Data set [27] in a line: Half life in rhesus monkey at 1 mg/kg, iv. The conditions noted are these: in vivo.
A short description of data set [28]: in vivo. Conditions: rhesus monkey, po, 2 mg/kg.
A short description of data set [29]: Clearance in rhesus monkey at 1 mg/kg, iv. Conditions: in vivo.
A short description of data set [30]: in vivo. The conditions noted are these: dog, plasma, po, 2 mg/kg.
Data set [31] is described as follows: Half life in dog at 1 mg/kg, iv. Conditions: in vivo.
Data set [32] in a line: in vivo. Conditions: dog, po, 2 mg/kg.
Data set [33] can be described thus: Clearance in dog at 1 mg/kg, iv. Conditions: in vivo.
Data set [34] in a line: in vivo. Conditions: rhesus monkey, plasma, po, 2 mg/kg.
Data set [35] is described as follows: Volume of distribution at steady state in rhesus monkey at 1 mg/kg, iv and 2 mg/kg, po. The conditions noted are these: in vivo.
Data set [36] relates to Mus musculus. Put plainly: Antidiabetic activity in C57BL/6N mouse assessed as reduction of blood glucose level at 10 mg/kg, po measured after 60 mins post administration. The class given is functional, organism-based. The arrangement: dose 10 mg/kg.

Calls of active or inactive are those of the source. The calls are words filed in the database; no cut-off is given here.

Sequence of Somatostatin receptor type 3 (Mus musculus) (P30935 whole entry): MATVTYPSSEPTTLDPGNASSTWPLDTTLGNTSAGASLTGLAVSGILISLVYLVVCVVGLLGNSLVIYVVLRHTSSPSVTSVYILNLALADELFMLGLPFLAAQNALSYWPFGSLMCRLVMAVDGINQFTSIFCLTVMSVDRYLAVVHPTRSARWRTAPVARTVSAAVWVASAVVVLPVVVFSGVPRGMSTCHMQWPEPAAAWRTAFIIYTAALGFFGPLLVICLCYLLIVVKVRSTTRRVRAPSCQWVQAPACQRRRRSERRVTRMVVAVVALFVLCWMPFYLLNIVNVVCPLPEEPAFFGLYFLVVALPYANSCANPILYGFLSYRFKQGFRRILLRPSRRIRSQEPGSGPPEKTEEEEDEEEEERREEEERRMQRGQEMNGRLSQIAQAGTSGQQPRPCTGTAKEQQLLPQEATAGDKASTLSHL
T2 sequence (P30935 whole entry): as above
T1 sequence (P32745 whole entry): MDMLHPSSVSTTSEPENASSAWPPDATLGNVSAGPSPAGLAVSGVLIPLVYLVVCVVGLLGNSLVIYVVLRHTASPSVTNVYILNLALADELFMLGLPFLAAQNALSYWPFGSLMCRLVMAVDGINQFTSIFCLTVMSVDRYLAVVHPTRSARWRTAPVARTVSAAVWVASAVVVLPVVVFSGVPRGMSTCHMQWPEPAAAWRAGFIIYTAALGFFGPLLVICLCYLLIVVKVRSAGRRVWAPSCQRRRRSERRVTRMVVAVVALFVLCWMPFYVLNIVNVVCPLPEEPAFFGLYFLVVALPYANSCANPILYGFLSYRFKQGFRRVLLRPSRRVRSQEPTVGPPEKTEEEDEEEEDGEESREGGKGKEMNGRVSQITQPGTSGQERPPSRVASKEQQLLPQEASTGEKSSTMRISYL
Sequence of Voltage-gated inwardly rectifying potassium channel KCNH2 (Q12809 whole entry): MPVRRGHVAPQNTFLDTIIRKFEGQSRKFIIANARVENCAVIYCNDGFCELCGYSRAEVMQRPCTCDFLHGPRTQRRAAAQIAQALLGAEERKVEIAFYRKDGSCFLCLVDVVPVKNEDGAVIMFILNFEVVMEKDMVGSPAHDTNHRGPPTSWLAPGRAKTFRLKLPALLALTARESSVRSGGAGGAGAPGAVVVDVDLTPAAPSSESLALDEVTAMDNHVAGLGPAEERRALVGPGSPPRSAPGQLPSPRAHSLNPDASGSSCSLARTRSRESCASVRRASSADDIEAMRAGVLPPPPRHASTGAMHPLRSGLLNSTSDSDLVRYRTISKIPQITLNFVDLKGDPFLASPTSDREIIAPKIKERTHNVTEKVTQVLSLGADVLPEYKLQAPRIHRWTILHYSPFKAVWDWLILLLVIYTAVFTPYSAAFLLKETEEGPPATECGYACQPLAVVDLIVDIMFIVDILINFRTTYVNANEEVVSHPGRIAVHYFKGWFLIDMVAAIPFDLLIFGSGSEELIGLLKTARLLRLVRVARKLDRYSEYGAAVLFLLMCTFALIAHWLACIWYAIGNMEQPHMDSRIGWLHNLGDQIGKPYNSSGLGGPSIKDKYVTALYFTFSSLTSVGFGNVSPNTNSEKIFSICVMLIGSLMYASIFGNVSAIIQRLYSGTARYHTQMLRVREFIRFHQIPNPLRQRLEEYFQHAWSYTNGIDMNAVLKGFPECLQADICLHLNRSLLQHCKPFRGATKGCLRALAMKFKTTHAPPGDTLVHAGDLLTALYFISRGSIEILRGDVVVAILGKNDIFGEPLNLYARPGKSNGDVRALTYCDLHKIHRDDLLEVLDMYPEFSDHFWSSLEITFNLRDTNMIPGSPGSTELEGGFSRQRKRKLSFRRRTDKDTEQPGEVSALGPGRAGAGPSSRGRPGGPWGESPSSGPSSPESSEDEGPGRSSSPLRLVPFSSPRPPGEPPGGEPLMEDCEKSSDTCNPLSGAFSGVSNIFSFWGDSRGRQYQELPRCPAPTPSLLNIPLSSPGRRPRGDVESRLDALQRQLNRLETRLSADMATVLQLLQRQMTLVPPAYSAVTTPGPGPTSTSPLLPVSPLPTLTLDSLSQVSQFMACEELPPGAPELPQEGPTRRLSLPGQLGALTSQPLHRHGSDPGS
Sequence of Somatostatin receptor type 5 (Homo sapiens) (P35346 whole entry): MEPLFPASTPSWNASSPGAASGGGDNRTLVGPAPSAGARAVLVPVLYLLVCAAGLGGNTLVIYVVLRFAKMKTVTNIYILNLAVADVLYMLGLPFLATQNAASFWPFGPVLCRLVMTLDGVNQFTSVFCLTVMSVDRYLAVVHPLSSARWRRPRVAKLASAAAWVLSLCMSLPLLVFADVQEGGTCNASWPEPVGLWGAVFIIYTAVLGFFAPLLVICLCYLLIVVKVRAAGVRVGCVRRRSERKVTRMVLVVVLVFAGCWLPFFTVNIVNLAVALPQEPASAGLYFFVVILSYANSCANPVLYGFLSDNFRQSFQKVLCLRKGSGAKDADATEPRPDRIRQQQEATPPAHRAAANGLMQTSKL
Sequence of Somatostatin receptor type 4 (Homo sapiens) (P31391 whole entry): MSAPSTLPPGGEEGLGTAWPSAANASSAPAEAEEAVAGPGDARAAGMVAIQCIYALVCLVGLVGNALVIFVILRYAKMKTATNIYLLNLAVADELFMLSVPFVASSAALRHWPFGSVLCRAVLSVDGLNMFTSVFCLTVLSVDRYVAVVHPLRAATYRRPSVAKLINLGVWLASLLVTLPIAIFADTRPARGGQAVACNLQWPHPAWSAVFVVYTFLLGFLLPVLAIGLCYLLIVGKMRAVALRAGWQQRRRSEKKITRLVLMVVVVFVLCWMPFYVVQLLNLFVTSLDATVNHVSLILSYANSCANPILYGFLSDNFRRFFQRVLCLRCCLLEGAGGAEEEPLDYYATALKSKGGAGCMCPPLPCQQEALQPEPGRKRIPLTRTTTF

The inhibition is the drop in the measured response relative to a control, in per cent. The term IC50 denotes the concentration needed to halve the response being measured. As a reminder, the Ki is a dissociation constant, usually derived from enzyme kinetics or from competition with a known ligand. As for `Fc1ccc(-c2c[nH]c([C@H]3Cc4c([nH]c5ccccc45)C(c4ccccc4)(c4ccccc4)N3)n2)cc1`, in data set [1], the inhibition turned out to be 101%. Moreover, the IC50 in [2] stood at 7.3 nM; in data set [3], 0.76 nM; in data set [5], 2.4 nM. In addition, the Ki in [4] was 44 nM.

Usually half-life stands for the time in which the quantity being followed falls by half. The AUC(0-t) is exposure summed from dosing to a finite time, without extrapolation to infinity. A word on the bioavailability: it is the share of a dose that reaches the circulation, judged against a reference dose that is usually intravenous. One may read the clearance as the volume of plasma or blood freed of the substance per unit of time. With `Cn1cc([C@@H]2N[C@@H](c3nc(-c4ccc(F)cc4)c[nH]3)Cc3c2[nH]c2ccccc32)cn1`, the figures for the Vd in [6] and in data set [15] were 10.8 L/kg and 4.59 L/kg, respectively. For the same compound, the inhibition in data set [1] was determined as 66%. Further, the IC50 in data set [2] was found to be 33 nM; in [3] it was 7.2 nM; in [5] it was 26 nM; in data set [18], 4.8 nM. The Activity with Mus musculus [7] is 84%. In addition, the half-life in [8] is 2.26 h; in [9], 2.24 h. Moreover, the AUC(0-t) is 1.38 µM·h in “in vivo [10]” and 4.11 µM·h in the data set “in vivo [12]”. Further, the results for the bioavailability in “in vivo [11]” and in the data set “in vivo [14]” were 47% and 100%, respectively. In [13], this compound had a concentration at 2.5 h of 1600 nM. In data set [4], this compound returned a Ki of 2190 nM. In addition, the clearance in data set [16] was 25.3 mL/min/kg; in data set [17] it was 99.6 mL/min/kg.

Regarding `Cc1nc([C@@]2(c3cnn(C)c3)N[C@@H](c3nc(-c4ccc(F)cc4)c[nH]3)Cc3c2[nH]c2ccccc32)no1`, the inhibition in [1] stood at 130%. Moreover, the Activity in the data set with Mus musculus [19] is on record as 63%.

`Cn1cc([C@H]2N[C@@H](c3nc(-c4ccc(F)cc4)c[nH]3)Cc3c2[nH]c2ccccc32)cn1`: the inhibition in data set [1] worked out at 67%. Besides, the IC50 in [2] worked out at 9.3 nM; in [3], 6.9 nM; in data set [5], 4.4 nM; in data set [18] it was 4 nM. Moreover, the Activity in the data set with Mus musculus [7] was 91%. This compound also yielded a concentration at 2.5 h in data set [13] of 1200 nM. In [4], this compound returned a Ki of 300 nM.

Take `Cc1nc(C2(c3noc(C)n3)N[C@@H](c3nc(-c4ccc(F)cc4)c[nH]3)Cc3c2[nH]c2ccccc32)no1`: the inhibition in data set [1] was found to be 133%. Moreover, the IC50 was 1.2 nM in data set [2], 0.97 nM in data set [3], 1.3 nM in [5] and 0.59 nM in data set [18]. The Activity with Mus musculus [19] was 71%.

Regarding `Cc1nc([C@@]2(c3cnn(C)c3)N[C@H](c3nc(-c4ccc(F)cc4)c[nH]3)Cc3c2[nH]c2ccccc32)no1`, in data set [1], the inhibition was determined as 92%. In the data set with Mus musculus [19], the Activity is given as 81%.

`Cc1nc([C@]2(c3cnn(C)c3)N[C@H](c3nc(-c4ccc(F)cc4)c[nH]3)Cc3c2[nH]c2ccccc32)no1`: in [1], the inhibition came to 68%. Moreover, the Activity in the data set on Mus musculus [19] was determined as 80%.

Broadly, the inhibition in vivo is the drop in the measured response relative to a control, in per cent. With `Cc1nc([C@]2(c3cnn(C)c3)N[C@@H](c3nc(-c4ccc(F)cc4)c[nH]3)Cc3c2[nH]c2ccccc32)no1`, the inhibition was 87% in data set [1], 34% in [23] and 42% in data set [24]. Also, the result in the data set on Mus musculus [20] was inactive. Besides, in the data set on Mus musculus [21], the inhibition in vivo at 1 mg/kg was 112%. In addition, the figures for the Activity in the data set on Mus musculus [22], with Mus musculus [19] and with Mus musculus [25] were 28%, 109% and “Dose-dependent effect”, respectively.

As for `Cc1nc([C@@H]2N[C@@H](c3nc(-c4ccc(F)cc4)c[nH]3)Cc3c2[nH]c2ccccc32)no1`, the Vd in data set [26] was determined as 0.87 L/kg; in data set [6], 7.21 L/kg; in data set [15] it was 5.83 L/kg; in data set [35], 1.75 L/kg. Moreover, the inhibition in data set [1] is 92%. Also, the IC50 amounted to 58 nM in [2], 9.2 nM in data set [3], 29 nM in [5] and 8.1 nM in data set [18]. The Activity in the data set on Mus musculus [7] worked out at 87%. Also, the half-life in data set [8] is 8.14 h; in data set [27], 8.08 h; in data set [9] it was 2.58 h; in data set [31] it was 6.69 h. The bioavailability in the data set “in vivo [28]” was determined as 51%; in “in vivo [11]” it was 58%; in “in vivo [32]” it was 67%; in “in vivo [14]”, 76%. Further, the AUC(0-t) in the data set “in vivo [10]” came out at 4.36 µM·h; in “in vivo [30]” it was 27.6 µM·h; in “in vivo [12]” it was 7.73 µM·h; in the data set “in vivo [34]”, 12.4 µM·h. For the same compound, the clearance stood at 2.79 mL/min/kg in data set [29], 1.78 mL/min/kg in data set [33], 9.67 mL/min/kg in data set [16] and 39.9 mL/min/kg in data set [17]. In data set [13], this compound had a concentration at 2.5 h of 200 nM. The compound also came in with a Ki in data set [4] of 2210 nM.

`c1ccc(-c2c[nH]c([C@H]3Cc4c([nH]c5ccccc45)[C@@H](C4CCOCC4)N3)n2)cc1`: the inhibition in [1] stood at 98%. The IC50 in data set [2] was 11 nM. In addition, in the data set on Mus musculus [7], the Activity is 75%. The concentration at 2.5 h in [13] was found to be 3800 nM.

With `Cc1cnc(C(=O)NCCc2ccc(S(=O)(=O)NC(=O)NC3CCCCC3)cc2)cn1`, in the data set with Mus musculus [36], the result was Active.

Turning to `Cc1nc([C@H]2N[C@@H](c3nc(-c4ccc(F)cc4)c[nH]3)Cc3c2[nH]c2ccccc32)no1`, the inhibition in [1] came to 103%. The IC50 in data set [2] was 19 nM; in data set [3], 19 nM; in data set [5] it was 18 nM. In addition, the Ki in data set [4] amounted to 385 nM.

Regarding `Fc1ccc(-c2c[nH]c([C@H]3Cc4c([nH]c5ccccc45)[C@@H](C4CCOCC4)N3)n2)cc1`, the inhibition in [1] came to 108%. The IC50 in data set [2] is 5.7 nM; in data set [3], 2.8 nM; in [5] it was 26 nM; in data set [18] it was 1.7 nM. For the same compound, the Activity with Mus musculus [7] was determined as 79%. This compound also had a concentration at 2.5 h in data set [13] of 4600 nM.

`Cn1cc(C2(c3cnn(C)c3)N[C@@H](c3nc(-c4ccc(F)cc4)c[nH]3)Cc3c2[nH]c2ccccc32)cn1`: the inhibition in data set [1] worked out at 113%. For the same compound, the IC50 was 0.7 nM in [2], 0.74 nM in data set [3], 0.48 nM in [5] and 0.46 nM in [18]. The Activity with Mus musculus [19] was determined as 68%.
